{"source": "the NIST ThermoML archive (doi:10.1016/j.jct.2016.01.028)", "assay": "xn = mol fraction of the nth substance listed", "settings": "102 kPa, Liquid; for speed of sound: Frequency=5 MHz, Single path-length method; for mass density: Vibrating tube method", "note": "Numbers after ± are expanded uncertainties."}
{"smiles": "CCCC(=O)[O-].C[NH2+]CCO", "note": "[N-methyl-2-hydroxyethylammonium butanoate] + O", "values": [{"measurement": "speed of sound", "setting": "298.15 K, x1 = 0.0199", "result": "1645.6 ± 14", "unit": "m/s"}, {"measurement": "speed of sound", "setting": "298.15 K, x1 = 0.0497", "result": "1762.6 ± 14", "unit": "m/s"}, {"measurement": "speed of sound", "setting": "298.15 K, x1 = 0.1005", "result": "1773.4 ± 14", "unit": "m/s"}, {"measurement": "speed of sound", "setting": "298.15 K, x1 = 0.196", "result": "1739.5 ± 14", "unit": "m/s"}, {"measurement": "speed of sound", "setting": "298.15 K, x1 = 0.3008", "result": "1732 ± 14", "unit": "m/s"}, {"measurement": "speed of sound", "setting": "298.15 K, x1 = 0.4005", "result": "1693.9 ± 14", "unit": "m/s"}, {"measurement": "speed of sound", "setting": "298.15 K, x1 = 0.509", "result": "1674.1 ± 14", "unit": "m/s"}, {"measurement": "speed of sound", "setting": "298.15 K, x1 = 0.5968", "result": "1659.6 ± 14", "unit": "m/s"}, {"measurement": "speed of sound", "setting": "298.15 K, x1 = 0.8069", "result": "1630.4 ± 14", "unit": "m/s"}, {"measurement": "speed of sound", "setting": "298.15 K, x1 = 1", "result": "1562.9 ± 14", "unit": "m/s"}, {"measurement": "mass density", "setting": "298.15 K, x1 = 0.0199", "result": "1016.9 ± 4", "unit": "kg/m3"}, {"measurement": "mass density", "setting": "298.15 K, x1 = 0.0497", "result": "1035 ± 4", "unit": "kg/m3"}, {"measurement": "mass density", "setting": "298.15 K, x1 = 0.1005", "result": "1040.8 ± 4", "unit": "kg/m3"}, {"measurement": "mass density", "setting": "298.15 K, x1 = 0.196", "result": "1050.5 ± 4", "unit": "kg/m3"}, {"measurement": "mass density", "setting": "298.15 K, x1 = 0.3008", "result": "1052.5 ± 4", "unit": "kg/m3"}, {"measurement": "mass density", "setting": "298.15 K, x1 = 0.4005", "result": "1049.1 ± 4", "unit": "kg/m3"}, {"measurement": "mass density", "setting": "298.15 K, x1 = 0.509", "result": "1046.8 ± 4", "unit": "kg/m3"}, {"measurement": "mass density", "setting": "298.15 K, x1 = 0.5968", "result": "1045 ± 4", "unit": "kg/m3"}, {"measurement": "mass density", "setting": "298.15 K, x1 = 0.8069", "result": "1041.3 ± 4", "unit": "kg/m3"}, {"measurement": "mass density", "setting": "298.15 K, x1 = 1", "result": "1035.3 ± 4", "unit": "kg/m3"}, {"measurement": "speed of sound", "setting": "303.15 K, x1 = 0.0199", "result": "1646.1 ± 14", "unit": "m/s"}, {"measurement": "speed of sound", "setting": "303.15 K, x1 = 0.0497", "result": "1755.1 ± 14", "unit": "m/s"}, {"measurement": "speed of sound", "setting": "303.15 K, x1 = 0.1005", "result": "1763.6 ± 14", "unit": "m/s"}, {"measurement": "speed of sound", "setting": "303.15 K, x1 = 0.196", "result": "1725.4 ± 14", "unit": "m/s"}, {"measurement": "speed of sound", "setting": "303.15 K, x1 = 0.3008", "result": "1717 ± 14", "unit": "m/s"}, {"measurement": "speed of sound", "setting": "303.15 K, x1 = 0.4005", "result": "1678.1 ± 14", "unit": "m/s"}, {"measurement": "speed of sound", "setting": "303.15 K, x1 = 0.509", "result": "1658.3 ± 14", "unit": "m/s"}, {"measurement": "speed of sound", "setting": "303.15 K, x1 = 0.5968", "result": "1643.9 ± 14", "unit": "m/s"}, {"measurement": "speed of sound", "setting": "303.15 K, x1 = 0.8069", "result": "1614.5 ± 14", "unit": "m/s"}, {"measurement": "speed of sound", "setting": "303.15 K, x1 = 1", "result": "1548 ± 14", "unit": "m/s"}, {"measurement": "mass density", "setting": "303.15 K, x1 = 0.0199", "result": "1013.1 ± 4", "unit": "kg/m3"}, {"measurement": "mass density", "setting": "303.15 K, x1 = 0.0497", "result": "1032.4 ± 4", "unit": "kg/m3"}, {"measurement": "mass density", "setting": "303.15 K, x1 = 0.1005", "result": "1037.9 ± 4", "unit": "kg/m3"}, {"measurement": "mass density", "setting": "303.15 K, x1 = 0.196", "result": "1047.4 ± 4", "unit": "kg/m3"}, {"measurement": "mass density", "setting": "303.15 K, x1 = 0.3008", "result": "1049.4 ± 4", "unit": "kg/m3"}, {"measurement": "mass density", "setting": "303.15 K, x1 = 0.4005", "result": "1046 ± 4", "unit": "kg/m3"}, {"measurement": "mass density", "setting": "303.15 K, x1 = 0.509", "result": "1043.6 ± 4", "unit": "kg/m3"}, {"measurement": "mass density", "setting": "303.15 K, x1 = 0.5968", "result": "1041.7 ± 4", "unit": "kg/m3"}, {"measurement": "mass density", "setting": "303.15 K, x1 = 0.8069", "result": "1038 ± 4", "unit": "kg/m3"}, {"measurement": "mass density", "setting": "303.15 K, x1 = 1", "result": "1031.9 ± 4", "unit": "kg/m3"}, {"measurement": "speed of sound", "setting": "308.15 K, x1 = 0.0199", "result": "1646.7 ± 14", "unit": "m/s"}, {"measurement": "speed of sound", "setting": "308.15 K, x1 = 0.0497", "result": "1747.6 ± 14", "unit": "m/s"}, {"measurement": "speed of sound", "setting": "308.15 K, x1 = 0.1005", "result": "1753.8 ± 14", "unit": "m/s"}, {"measurement": "speed of sound", "setting": "308.15 K, x1 = 0.196", "result": "1711.3 ± 14", "unit": "m/s"}, {"measurement": "speed of sound", "setting": "308.15 K, x1 = 0.3008", "result": "1701.9 ± 14", "unit": "m/s"}, {"measurement": "speed of sound", "setting": "308.15 K, x1 = 0.4005", "result": "1662.3 ± 14", "unit": "m/s"}, {"measurement": "speed of sound", "setting": "308.15 K, x1 = 0.509", "result": "1642.4 ± 14", "unit": "m/s"}, {"measurement": "speed of sound", "setting": "308.15 K, x1 = 0.5968", "result": "1628.1 ± 14", "unit": "m/s"}, {"measurement": "speed of sound", "setting": "308.15 K, x1 = 0.8069", "result": "1598.6 ± 14", "unit": "m/s"}, {"measurement": "speed of sound", "setting": "308.15 K, x1 = 1", "result": "1529.7 ± 14", "unit": "m/s"}, {"measurement": "mass density", "setting": "308.15 K, x1 = 0.0199", "result": "1009.2 ± 4", "unit": "kg/m3"}, {"measurement": "mass density", "setting": "308.15 K, x1 = 0.0497", "result": "1029.8 ± 4", "unit": "kg/m3"}, {"measurement": "mass density", "setting": "308.15 K, x1 = 0.1005", "result": "1035 ± 4", "unit": "kg/m3"}, {"measurement": "mass density", "setting": "308.15 K, x1 = 0.196", "result": "1044.4 ± 4", "unit": "kg/m3"}, {"measurement": "mass density", "setting": "308.15 K, x1 = 0.3008", "result": "1046.3 ± 4", "unit": "kg/m3"}, {"measurement": "mass density", "setting": "308.15 K, x1 = 0.4005", "result": "1042.8 ± 4", "unit": "kg/m3"}, {"measurement": "mass density", "setting": "308.15 K, x1 = 0.509", "result": "1040.4 ± 4", "unit": "kg/m3"}, {"measurement": "mass density", "setting": "308.15 K, x1 = 0.5968", "result": "1038.5 ± 4", "unit": "kg/m3"}, {"measurement": "mass density", "setting": "308.15 K, x1 = 0.8069", "result": "1034.7 ± 4", "unit": "kg/m3"}, {"measurement": "mass density", "setting": "308.15 K, x1 = 1", "result": "1028.6 ± 4", "unit": "kg/m3"}, {"measurement": "speed of sound", "setting": "313.15 K, x1 = 0.0199", "result": "1647.3 ± 14", "unit": "m/s"}, {"measurement": "speed of sound", "setting": "313.15 K, x1 = 0.0497", "result": "1740 ± 14", "unit": "m/s"}, {"measurement": "speed of sound", "setting": "313.15 K, x1 = 0.1005", "result": "1744 ± 14", "unit": "m/s"}, {"measurement": "speed of sound", "setting": "313.15 K, x1 = 0.196", "result": "1697.2 ± 14", "unit": "m/s"}, {"measurement": "speed of sound", "setting": "313.15 K, x1 = 0.3008", "result": "1686.8 ± 14", "unit": "m/s"}, {"measurement": "speed of sound", "setting": "313.15 K, x1 = 0.4005", "result": "1646.5 ± 14", "unit": "m/s"}, {"measurement": "speed of sound", "setting": "313.15 K, x1 = 0.509", "result": "1626.6 ± 14", "unit": "m/s"}, {"measurement": "speed of sound", "setting": "313.15 K, x1 = 0.5968", "result": "1612.4 ± 14", "unit": "m/s"}, {"measurement": "speed of sound", "setting": "313.15 K, x1 = 0.8069", "result": "1582.7 ± 14", "unit": "m/s"}, {"measurement": "speed of sound", "setting": "313.15 K, x1 = 1", "result": "1511.9 ± 14", "unit": "m/s"}, {"measurement": "mass density", "setting": "313.15 K, x1 = 0.0199", "result": "1005.3 ± 4", "unit": "kg/m3"}, {"measurement": "mass density", "setting": "313.15 K, x1 = 0.0497", "result": "1027.2 ± 4", "unit": "kg/m3"}, {"measurement": "mass density", "setting": "313.15 K, x1 = 0.1005", "result": "1032 ± 4", "unit": "kg/m3"}, {"measurement": "mass density", "setting": "313.15 K, x1 = 0.196", "result": "1041.3 ± 4", "unit": "kg/m3"}, {"measurement": "mass density", "setting": "313.15 K, x1 = 0.3008", "result": "1043.2 ± 4", "unit": "kg/m3"}, {"measurement": "mass density", "setting": "313.15 K, x1 = 0.4005", "result": "1039.6 ± 4", "unit": "kg/m3"}, {"measurement": "mass density", "setting": "313.15 K, x1 = 0.509", "result": "1037.2 ± 4", "unit": "kg/m3"}, {"measurement": "mass density", "setting": "313.15 K, x1 = 0.5968", "result": "1035.3 ± 4", "unit": "kg/m3"}, {"measurement": "mass density", "setting": "313.15 K, x1 = 0.8069", "result": "1031.4 ± 4", "unit": "kg/m3"}, {"measurement": "mass density", "setting": "313.15 K, x1 = 1", "result": "1025.2 ± 4", "unit": "kg/m3"}]}
